In PMC8286840, “Identifying SARS-CoV-2 antiviral compounds by screening for small molecule inhibitors of Nsp3 papain-like protease” (Biochemical Journal, 2021) one finds remaining activity data, which are given here for 29 compounds.

Assay [1] has as its target T1, SARS-CoV-2 PLpro (nsp3 1564–1878) (Severe acute respiratory syndrome coronavirus 2, UniProt P0DTD1). Kind of assay: biochemical. Also noted: FRET-quenched peptide (Pro3) cleavage by PLpro, 10 min pre-incubation, slope over 20 min, normalised to no-compound control. The note with it: high concentration screen, read-out: % of control remaining.
For assay [2], the target named is T1, SARS-CoV-2 PLpro (nsp3 1564–1878). Kind of assay: biochemical. Also noted: FRET-quenched peptide (Pro3) cleavage by PLpro, 10 min pre-incubation, slope over 20 min, normalised to no-compound control. The following applies: low concentration screen, read-out: % of control remaining.

Counter-ions that a name gives are not always drawn. Like-named read-outs stand apart in the source and are kept apart here. Where a SMILES comes first, the peptide text is derived from it. [ ]: non-standard residue; d: D form. The star is where a group is joined. Dolaproine = CO[C@@H]([C@@H]1CCCN1)[C@@H](C)C(=O)O; Hexanoyl(6-maleimido) = O=C1C=CC(=O)N1CCCCCC(=O)*; Dil = CC[C@H](C)[C@H](NC)[C@@H](CC(=O)O)OC; NMeV = CN[C@H](C(=O)O)C(C)C

For `COc1c(O)cc2c(c1O)[C@@H]1O[C@H](CO)[C@@H](O)[C@H](O)[C@H]1OC2=O` [Bergenin], the remaining activity at 3.75 µM in assay [1] (Well no.=3517) amounted to 107%. In addition, in assay [2] (Well no.=3517), the remaining activity at 1.25 µM stood at 103%.

As to `Nc1nc2[nH]c(=O)cnc2c(=O)[nH]1` [Isoxanthopterin], the remaining activity at 3.75 µM in assay [1] (Well no.=1109) was 100%. Moreover, the remaining activity at 1.25 µM in assay [2] (Well no.=1109) turned out to be 96.8%.

With `Cc1c(C(=O)Nc2cccc(C(F)(F)F)c2)cc(-c2ccccc2)n1CCCN1CCOCC1` [HC-067047], in assay [1] (Well no.=5409), the remaining activity at 3.75 µM worked out at 103%. In addition, the remaining activity at 1.25 µM in assay [2] (Well no.=5409) came out at 102%.

`CC(=O)OC/C=C(C)/C=C/C=C(C)/C=C/C1=C(C)CCCC1(C)C` [Vitamin A acetate]: in assay [1] (Well no.=1700), the remaining activity at 3.75 µM was 97.8%. The remaining activity at 1.25 µM in assay [2] (Well no.=1700) was determined as 101%.

Take `COc1c2occc2cc2ccc(=O)oc12` [Xanthotoxin]: in assay [1] (Well no.=3459), the remaining activity at 3.75 µM is 106%. In addition, the remaining activity at 1.25 µM in assay [2] (Well no.=3459) was 104%.

Consider `CO/N=C(\C(=O)N[C@@H]1C(=O)N2C(C(=O)[O-])=C(C[N+]3(C)CCCC3)CS[C@H]12)c1csc(N)n1` [Cefepime], for which the remaining activity at 3.75 µM in assay [1] (Well no.=1842) came to 88.2%. Also, the remaining activity at 1.25 µM in assay [2] (Well no.=1842) was found to be 90%.

`C[N+]1(C)[C@@H]2C[C@@H](OC(=O)C(O)(c3cccs3)c3cccs3)C[C@H]1[C@@H]1O[C@@H]12` [Tiotropium Bromide hydrate]: in assay [1] (Well no.=4912), the remaining activity at 3.75 µM stood at 95.8%. Also, the remaining activity at 1.25 µM in assay [2] (Well no.=4912) is 100%.

Turning to `O=C1Nc2ccc3ncsc3c2/C1=C/c1cnc[nH]1` [PKR Inhibitor], the remaining activity at 3.75 µM in assay [1] (Well no.=2511) was found to be 103%. Also, the remaining activity at 1.25 µM in assay [2] (Well no.=2511) stood at 103%.

Turning to `CCCc1nc(C(C)(C)O)c(C(=O)O)n1Cc1ccc(-c2ccccc2-c2nnn[nH]2)cc1` [Olmesartan], the remaining activity at 3.75 µM in assay [1] (Well no.=1794) came to 95.4%; in assay [1] (Well no.=7669), 99%. The remaining activity at 1.25 µM in assay [2] (Well no.=1794) came to 94.8%; in assay [2] (Well no.=7669) it was 100%.

For `COc1ccc([C@@H]2CC(=O)c3c(O)cc(O[C@@H]4O[C@H](CO)[C@@H](O)[C@H](O)[C@H]4O[C@@H]4O[C@@H](C)[C@H](O)[C@@H](O)[C@H]4O)cc3O2)cc1O` [Neohesperidin], in assay [1] (Well no.=3444), the remaining activity at 3.75 µM was 98.5%. Besides, in assay [2] (Well no.=3444), the remaining activity at 1.25 µM is 98.8%.

As to `CC(=O)OCC(=O)[C@@]1(O)CC[C@H]2[C@@H]3CCC4=CC(=O)C=C[C@]4(C)[C@H]3[C@@H](O)C[C@@]21C` [Prednisolone acetate], in assay [1] (Well no.=5859), the remaining activity at 3.75 µM stood at 95.6%. The remaining activity at 1.25 µM in assay [2] (Well no.=5859) was 102%.

Regarding `CCCN[C@@H]1CCc2nc(N)sc2C1` [Dexpramipexole (dihydrochloride)], in assay [1] (Well no.=7181), the remaining activity at 3.75 µM is 93.6%. Further, in assay [2] (Well no.=7181), the remaining activity at 1.25 µM stood at 98.2%.

Take `O=C(O)CCc1ccccc1` [Hydrocinnamic acid]: the remaining activity at 3.75 µM in assay [1] (Well no.=6731) worked out at 96.7%. Moreover, the remaining activity at 1.25 µM in assay [2] (Well no.=6731) worked out at 98.5%.

Turning to `CCOC(=O)c1cnc(C#Cc2ccc3c(c2)C(C)(C)CC[S+]3[O-])nc1` (stereo not shown) [WYC-209], the remaining activity at 3.75 µM in assay [1] (Well no.=7204) stood at 90.8%. In assay [2] (Well no.=7204), the remaining activity at 1.25 µM is 92.4%.

`CN1[C@@H](CC(=O)c2ccccc2)CCC[C@H]1C[C@H](O)c1ccccc1` [Lobeline (hydrochloride)]: the remaining activity at 3.75 µM in assay [1] (Well no.=8326) came to 100%. Moreover, in assay [2] (Well no.=8326), the remaining activity at 1.25 µM is 104%.

In the case of `COc1ccc2c(c1)[C@]13CCCC[C@@H]1[C@H](C2)N(C)CC3` [Dextromethorphan (hydrobromide hydrate)], in assay [1] (Well no.=8295), the remaining activity at 3.75 µM was found to be 96.5%. In addition, in assay [2] (Well no.=8295), the remaining activity at 1.25 µM came to 101%.

Consider `CCCCCCCCCCCCCCCC(=O)NCCc1ccc(O)c(O)c1` [Palmitoyl dopamine], for which, in assay [1] (Well no.=4261), the remaining activity at 3.75 µM amounted to 98.2%. In assay [2] (Well no.=4261), the remaining activity at 1.25 µM was found to be 101%.

On to `CC12CC3CC(C)(C1)CC(N)(C3)C2` [Memantine.HCl], for which, in assay [1] (Well no.=1887), the remaining activity at 3.75 µM stood at 95.2%. Also, in assay [2] (Well no.=1887), the remaining activity at 1.25 µM turned out to be 94.9%.

Take `C#C[C@]1(O)CC[C@H]2[C@@H]3CCC4=CC(=O)CC[C@]4(C)[C@H]3CC[C@@]21C` [Ethisterone]: the remaining activity at 3.75 µM in assay [1] (Well no.=2030) is 101%. The remaining activity at 1.25 µM in assay [2] (Well no.=2030) amounted to 101%.

Regarding `C[N+](C)(C)CCOC(=O)CBr` [Bromoacetylcholine bromide], the remaining activity at 3.75 µM in assay [1] (Well no.=181) turned out to be 98.9%. In addition, in assay [2] (Well no.=181), the remaining activity at 1.25 µM worked out at 102%.

For `CC(C)NP(=O)(NC(C)C)OP(=O)(NC(C)C)NC(C)C` [Tetraisopropyl pyrophosphoramide], in assay [1] (Well no.=1473), the remaining activity at 3.75 µM is 100%. For the same compound, the remaining activity at 1.25 µM in assay [2] (Well no.=1473) came out at 103%.

Take `CCC(Sc1nnc2c(n1)[nH]c1ccccc12)C(=O)N1c2ccccc2Sc2ccccc21` (stereo not shown) [10-[2-(5H-[1,2,4]triazino[5,6-b]indol-3-ylsulfanyl)butanoyl]-10H-phenothiazine]: in assay [1] (Well no.=5509), the remaining activity at 3.75 µM turned out to be 108%. In addition, the remaining activity at 1.25 µM in assay [2] (Well no.=5509) was 110%.

With `Nc1nc(Cl)nc2c1ncn2[C@H]1C[C@H](O)[C@@H](CO)O1` [Cladribine], the remaining activity at 3.75 µM in assay [1] (Well no.=5101) was 108%; in assay [1] (Well no.=8050), 100%. For the same compound, the figures for the remaining activity at 1.25 µM in assay [2] (Well no.=5101) and in assay [2] (Well no.=8050) were 107% and 99%, respectively.

On to `CC(C)(C)C(=O)C(=Nc1ccc(Cl)cc1)NNc1ccc(Cl)cc1` [TY-52156], for which, in assay [1] (Well no.=7819), the remaining activity at 3.75 µM came out at 104%. Further, the remaining activity at 1.25 µM in assay [2] (Well no.=7819) amounted to 105%.

As to `CC[C@@H](C(N)=O)N1CCCC1=O` [Levetiracetam], the remaining activity at 3.75 µM in assay [1] (Well no.=1820) turned out to be 94.4%. Moreover, the remaining activity at 1.25 µM in assay [2] (Well no.=1820) was 96.8%.

Regarding `CC[C@H](C)[C@@H]([C@@H](CC(=O)N1CCC[C@H]1[C@H](OC)[C@@H](C)C(=O)N[C@@H](Cc1ccccc1)C(=O)O)OC)N(C)C(=O)[C@@H](NC(=O)[C@H](C(C)C)N(C)C(=O)CCCCCN1C(=O)C=CC1=O)C(C)C` [McMMAF] ({Hexanoyl(6-maleimido)}-[NMeV]V[Dil][Dolaproine]F-OH), in assay [1] (Well no.=7742), the remaining activity at 3.75 µM was 101%. In assay [2] (Well no.=7742), the remaining activity at 1.25 µM turned out to be 97.3%.

As to `O=c1[nH]c(=O)n([C@H]2C[C@H](O)[C@@H](CO)O2)cc1F` [Floxuridine], the remaining activity at 3.75 µM was 102% in assay [1] (Well no.=2124) and 86.4% in assay [1] (Well no.=8010). Further, the remaining activity at 1.25 µM came to 98.1% in assay [2] (Well no.=2124) and 88% in assay [2] (Well no.=8010).

For `O=C(O)c1cc(C(F)(F)F)ccc1N1CC[C@H](OCc2ccccn2)C1` [XEN445], in assay [1] (Well no.=8574), the remaining activity at 3.75 µM is 109%. In addition, the remaining activity at 1.25 µM in assay [2] (Well no.=8574) was determined as 105%.

As to `COc1ccc(-c2ccc3cc(C(=O)O)ccc3c2)cc1[C@]12C[C@H]3C[C@H](C[C@H](C3)C1)C2` [Adapalene], the remaining activity at 3.75 µM in assay [1] (Well no.=1939) turned out to be 103%. Further, the remaining activity at 1.25 µM in assay [2] (Well no.=1939) stood at 99.2%.
